Experimental data: patent publication US5137887A, “Salts of optically active 4-hydroxy-8(3-lower alkoxy-4-phenylsulfinylphenyl)pyrazolo(1,5-A)-1,3,5- triazines and a process for production thereof” (Otsuka Pharmaceutical Factory, Inc., priority 1989, dated 1992)
Where two headings read alike, the source gives them in different places.

Columns and labels:
Solubility test = assay type: physicochemical; settings: shaken at 25° C., HPLC
Experimental: Solubility tests with the above respective samples using water (distilled water for injection) and physiological saline as solvents were performed as follows.
Using an incubator (Taiyo Kagaku Kogyo, M-100), the tube was shaken at 25° C. After 4 hours, the content was filtered through a 0.45 μm filter and the filtrate was diluted 100-fold with mobile phase to prepare a test solution. Separately, 40.0 mg of Sample I (racemic form) was accurately weighed and made up with water to make exactly 200 ml. Then, 1 ml of this solution was accurately taken and diluted with mobile phase to make exactly 20 ml (10 μg/ml) of standard solution. Using the above test solutions and the standard solution, the solubilities of the respective samples were determined.

[1] = test system: xanthine dehydrogenase activity in the liver; assay: Xanthine dehydrogenase inhibitory activity test (enzyme activity in liver after oral administration); assay type: in vivo; settings: male ICR rats, 5 mg/kg orally in 0.5% CMC; for Enzymatic activity in the liver isolated after 4 hr.: liver excised 4 hours after administration; for Enzymatic activity in the liver isolated after 8 hr.: liver excised 8 hours after administration
Experimental: Xanthine dehydrogenase inhibitory activity test
The test was performed using male ICR […] (aged 6 weeks, b.w. 28.0-40.6 g). The compounds of the invention as obtained in Example 2 were respectively suspended in 0.5% carboxymethylcellulose (CMC) solution and the suspensions were administered orally at the rate of 10 ml/kg (Test Group 1 and Test Group 2). The compound of the invention and its dosage used in each test group are shown below.
After 4 and 8 hours from the administration, animals in each group were sacrified, the liver was excised, and the xanthine dehydrogenase activity in the liver was assayed by the following general procedure.
Thus, a homogenate of the liver was diluted 5-fold with 100 mM Tris-HCl buffer (hereinafter referred to merely as buffer). Then, 50 μl of this dilution, 25 μl of a buffer dilution of NAD^+ (20 mM) and 25 μl of a buffer solution of potassium oxonate were added to 300 μl of the buffer (the concentrations of NAD^+ and potassium oxonate in the total solution were 1 mM each) and the mixture was incubated at 25° C. for 5 minutes. This incubate was centrifuged and the uric acid in the supernatant was estimated by high performance liquid chromatography (HPLC). The value was taken as the pre-treatment baseline.
On the other hand, to a preincubate obtained in the same manner as above was added 100 μl of a buffer solution of xanthine (1 mM) and the mixture was incubated at 25° C. for 5 minutes. The reaction was stopped with 50 μl of 6M perchloric acid and the reaction mixture was centrifuged in the same manner as above. The supernatant was neutralized with an aqueous solution of sodium dihydrogen phosphate and uric acid produced was assayed by HPLC. The value was taken as the post-treatment value.
From the difference between the above post-treatment value and pre-treatment baseline value of uric acid, xanthine dehydrogenase activity was determined.

[2] = water, water (distilled water for injection), read-out: Solubility in water
[3] = physiological saline, read-out: Solubility in physiological saline

For `COc1cc(-c2cnn3c([O-])ncnc23)ccc1[S+]([O-])c1ccccc1.O.[Na+]` (racemic) [Sample I, Sodium (±)-8-(3-methoxy-4-phenylsulfinylphenyl)pyrazolo[1,5-a]-1,3,5-triazine-4-olate monohydrate, reference compound], which “Solubility in physiological saline” value (Solubility test; physiological saline, 4 hours, listed as sodium salt of the racemic compound, monohydrate, 240 min) is on record?
Its value is “about 0.08 w/w %”.

And the “Solubility in physiological saline” value (Solubility test; physiological saline, 4 hours, monohydrate, 240 min)?
Its value is 0.0083 w/w %.

What about the Solubility in water (Solubility test; water (distilled water for injection), 4 hours, listed as sodium salt of the above racemic compound, monohydrate, 240 min) of the same molecule?
Its Solubility in water is “about 0.2 w/w %”.

And the solubility at 4 h (Solubility test; [2])?
The solubility at 4 h was 2.21 mg/mL.

Which solubility at 4 h (Solubility test; [3]) does the source give for `COc1cc(-c2cnn3c([O-])ncnc23)ccc1[S+]([O-])c1ccccc1.O.O.[Na+]` (single isomer, unassigned) [Sample II, Sodium (-)-8-(3-methoxy-4-phenylsulfinylphenyl)pyrazolo[1,5-a]-1,3,5-triazine-4-olate dihydrate] here?
Its solubility at 4 h is at least 500 mg/mL.

And the solubility at 4 h (Solubility test; [2])?
Its solubility at 4 h is at least 500 mg/mL.

And the “Enzymatic activity in the liver isolated after 4 hr.” value ([1]; control 152 ± 21, listed as Test group 1, dihydrate)?
The value was 7 ± 4 mU/g.

What about the “Enzymatic activity in the liver isolated after 8 hr.” value ([1]; control 137 ± 31, listed as Test group 1, dihydrate) of the same molecule?
Its value is 17 ± 7 mU/g.

For `COc1cc(-c2cnn3c([O-])ncnc23)ccc1[S+]([O-])c1ccccc1.O.O.[Na+]` (single isomer, unassigned) [Sample III, Sodium (+)-8-(3-methoxy-4-phenylsulfinylphenyl)pyrazolo[1,5-a]-1,3,5-triazine-4-olate dihydrate], which “Enzymatic activity in the liver isolated after 4 hr.” value ([1]; control 152 ± 21, listed as Test group 2, dihydrate) is on record?
The value was 33 ± 16 mU/g.

What about the “Enzymatic activity in the liver isolated after 8 hr.” value ([1]; control 137 ± 31, listed as Test group 2, dihydrate) of the same molecule?
Its value is 22 ± 10 mU/g.

Which results are given for `COc1cc(-c2cnn3c(O)ncnc23)ccc1[S+]([O-])c1ccccc1` (single isomer, unassigned) [Sample IV, Calcium bis[(-)-8-(3-methoxy-4-phenylsulfinylphenyl)pyrazolo[1,5-a]-1,3,5-triazine-4-olate] dihydrate]?
solubility at 4 h (Solubility test; [3]): ≥ 500 mg/mL; solubility at 4 h (Solubility test; water (distilled water for injection), read-out: Solubility in water): ≥ 500 mg/mL
